Values after ≈ are worked out from the molar mass of the structure shown.
Tests used:
[1] = tested on: Aspergillus flavus; assay: Antifungal activity against Aspergillus flavus assessed as inhibition per disc by percent spore germination inhibition method; type: functional
[2] = tested on: Pseudomonas aeruginosa; assay: Antibacterial activity against Pseudomonas aeruginosa by microbroth dilution assay; type: functional
[3] = tested on: Aspergillus niger; assay: Antifungal activity against Aspergillus niger assessed as inhibition per disc by disc diffusion method; type: functional
[4] = tested on: Aspergillus flavus; assay: Antifungal activity against Aspergillus flavus assessed as inhibition per disc by disc diffusion method; type: functional
[5] = tested on: Candida albicans; assay: Antifungal activity against Candida albicans assessed as inhibition per disc by percent growth inhibition assay; type: functional
[6] = tested on: Aspergillus niger; assay: Antifungal activity against Aspergillus niger assessed as inhibition per disc by microbroth dilution assay; type: functional
[7] = tested on: Aspergillus fumigatus; assay: Antifungal activity against Aspergillus fumigatus assessed as inhibition per disc by microbroth dilution assay; type: functional
[8] = tested on: Salmonella typhi; assay: Antibacterial activity against Salmonella typhi by microbroth dilution assay; type: functional, Salmonella enterica subsp. enterica serovar Typhi; conditions: Salmonella enterica
[9] = tested on: Aspergillus niger; assay: Antifungal activity against Aspergillus niger assessed as inhibition per disc by percent spore germination inhibition method; type: functional
[10] = tested on: Staphylococcus aureus; assay: Antibacterial activity against Staphylococcus aureus by microbroth dilution assay; type: functional
[11] = tested on: Aspergillus fumigatus; assay: Antifungal activity against Aspergillus fumigatus assessed as inhibition per disc by disc diffusion method; type: functional
[12] = Toxicity in human erythrocytes assessed as hemolysis upto 250 ug/mL; type: cell-based; conditions: erythrocyte
[13] = tested on: Aspergillus fumigatus; assay: Antifungal activity against Aspergillus fumigatus assessed as inhibition per disc by percent spore germination inhibition method; type: functional
[14] = tested on: Aspergillus flavus; assay: Antifungal activity against Aspergillus flavus assessed as inhibition per disc by microbroth dilution assay; type: functional
[15] = tested on: Streptococcus pneumoniae; assay: Antibacterial activity against Streptococcus pneumoniae by micro-broth dilution assay; type: functional
[16] = tested on: Aspergillus fumigatus; assay: Antifungal activity against Aspergillus fumigatus at 5.85 ug/mL; type: functional
[17] = tested on: Pseudomonas aeruginosa; assay: Antibacterial activity against Pseudomonas aeruginosa at 31.25 ug/mL; type: functional
[18] = tested on: Candida albicans; assay: Antifungal activity against Candida albicans at 31.25 ug/mL; type: functional
[19] = Toxicity in human erythrocytes assessed as hemolysis upto 1.70 ug/mL; type: cell-based, Erythrocyte; conditions: read-out: Activity
[20] = Toxicity in human erythrocytes assessed as hemolysis upto 3.91 ug/mL; type: cell-based, Erythrocyte; conditions: read-out: Activity
[21] = Toxicity in human erythrocytes assessed as hemolysis upto 62.5 ug/mL; type: cell-based, Erythrocyte; conditions: read-out: Activity
[22] = tested on: Salmonella typhi; assay: Antibacterial activity against Salmonella typhi at 31.25 ug/mL; type: functional, Salmonella enterica subsp. enterica serovar Typhi; conditions: Salmonella enterica
[23] = Toxicity in human erythrocytes assessed as hemolysis upto 4000 ug/mL; type: cell-based; conditions: erythrocyte

Row | Structure (SMILES) | MIC [1] | MIC [2] | MIC [3] | MIC [4] | MIC [5] | MIC [6] | MIC [7] | MIC [8] | MIC [9] | MIC [10] | MIC [11] | Activity [12] | MIC [13] | MIC [14] | MIC [15] | other results
1 | OC(CCl)CNc1ccccc1Cl (stereo unspecified) | 31.2 µg/mL (≈ 142 µM) | 62.5 µg/mL (≈ 284 µM) | 23.43 µg | 23.43 µg | 250 µg/mL (≈ 1140 µM) | 62.5 µg/mL | 31.2 µg/mL | 250 µg/mL (≈ 1140 µM) | 62.5 µg/mL (≈ 284 µM) | 500 µg/mL (≈ 2270 µM) | 11.71 µg | Non-toxic | 31.2 µg/mL (≈ 142 µM) | 63.5 µg/mL | 250 µg/mL (≈ 1140 µM) | inhibition at 5.85 µg/mL [16]: 90%
2 | OC(CCl)CNc1cc(Cl)ccc1Cl (stereo unspecified) | 62.5 µg/mL (≈ 246 µM) | 62.5 µg/mL (≈ 246 µM) | 93.75 µg | 93.75 µg | 62.5 µg/mL (≈ 246 µM) | 125 µg/mL | 125 µg/mL | 250 µg/mL (≈ 982 µM) | 125 µg/mL (≈ 491 µM) | 250 µg/mL (≈ 982 µM) | 46.87 µg | Non-toxic | 125 µg/mL (≈ 491 µM) | 125 µg/mL | 500 µg/mL (≈ 1960 µM) | –
3 | OC(CCl)CNc1ccc(Cl)c(Cl)c1 (stereo unspecified) | 31.2 µg/mL (≈ 123 µM) | 31.3 µg/mL (≈ 123 µM) | 46.87 µg | 23.43 µg | 125 µg/mL (≈ 491 µM) | 62.5 µg/mL | 31.2 µg/mL | 62.5 µg/mL (≈ 246 µM) | 62.5 µg/mL (≈ 246 µM) | 62.5 µg/mL (≈ 246 µM) | 11.71 µg | Non-toxic | 31.2 µg/mL (≈ 123 µM) | 62.5 µg/mL | 125 µg/mL (≈ 491 µM) | inhibition at 31.25 µg/mL [17]: 90%
4 | OC(CCl)CNc1c(Cl)cccc1Cl (stereo unspecified) | 62.5 µg/mL (≈ 246 µM) | 125 µg/mL (≈ 491 µM) | 93.75 µg | 46.87 µg | 31.2 µg/mL (≈ 123 µM) | 250 µg/mL | 125 µg/mL | 500 µg/mL (≈ 1960 µM) | 125 µg/mL (≈ 491 µM) | 500 µg/mL (≈ 1960 µM) | 46.87 µg | Non-toxic | 125 µg/mL (≈ 491 µM) | 125 µg/mL | 500 µg/mL (≈ 1960 µM) | inhibition at 31.25 µg/mL [18]: 90%
5 | OC(CCl)CNc1cccc(Cl)c1 (stereo unspecified) | 62.5 µg/mL (≈ 284 µM) | 250 µg/mL (≈ 1140 µM) | 46.87 µg | 46.87 µg | 125 µg/mL (≈ 568 µM) | 62.5 µg/mL | 62.5 µg/mL | 500 µg/mL (≈ 2270 µM) | 62.5 µg/mL (≈ 284 µM) | 1000 µg/mL (≈ 4540 µM) | 23.43 µg | Non-toxic | 62.5 µg/mL (≈ 284 µM) | 62.5 µg/mL | 500 µg/mL (≈ 2270 µM) | –
6 | C[C@@H]1[C@H](O)[C@@H](C)/C=C/C=C/C=C/C=C/C=C/C=C/C=C/[C@H](O[C@@H]2O[C@H](C)[C@@H](O)[C@H](N)[C@@H]2O)C[C@@H]2O[C@](O)(C[C@@H](O)C[C@@H](O)[C@H](O)CC[C@@H](O)C[C@@H](O)CC(=O)O[C@H]1C)C[C@H](O)[C@H]2C(=O)O (stereo in doubt) [AMPHOTERICIN B] | 1.95 µg/mL (≈ 2.11 µM) | – | 0.73 µg | 0.73 µg | – | 1.95 µg/mL | 1.95 µg/mL | – | 1.95 µg/mL (≈ 2.11 µM) | – | 0.73 µg | – | 1.95 µg/mL (≈ 2.11 µM) | 1.95 µg/mL | – | hemolysis at 1.7 ug/mL [19]: 50%; hemolysis at 3.91 ug/mL [20]: 5.52%; hemolysis at 62.5 ug/mL [21]: 100%
7 | OC(CCl)CNc1cc(Cl)cc(Cl)c1 (stereo unspecified) | 125 µg/mL (≈ 491 µM) | 62.5 µg/mL (≈ 246 µM) | 93.75 µg | 46.87 µg | 31.2 µg/mL (≈ 123 µM) | 250 µg/mL | 125 µg/mL | 31.3 µg/mL (≈ 123 µM) | 250 µg/mL (≈ 982 µM) | 125 µg/mL (≈ 491 µM) | 46.87 µg | Non-toxic | 125 µg/mL (≈ 491 µM) | 125 µg/mL | 250 µg/mL (≈ 982 µM) | inhibition at 31.25 µg/mL [22]: 90%; inhibition at 31.25 µg/mL [18]: 90%
8 | CN(C)[C@@H]1C(O)=C(C(N)=O)C(=O)[C@@]2(O)C(O)=C3C(=O)c4c(O)cccc4[C@@](C)(O)[C@H]3C[C@@H]12 [TETRACYCLINE] | – | 7.9 µg/mL (≈ 17.8 µM) | – | – | – | – | – | 15.6 µg/mL (≈ 35.1 µM) | – | 7.9 µg/mL (≈ 17.8 µM) | – | – | – | – | 7.9 µg/mL (≈ 17.8 µM) | hemolysis at 3.91 ug/mL [20]: 4.26%; hemolysis at 62.5 ug/mL [21]: 11.7%
9 | OC(CCl)CNc1ccc(Cl)cc1Cl (stereo unspecified) | 62.5 µg/mL (≈ 246 µM) | 62.5 µg/mL (≈ 246 µM) | 93.75 µg | 46.87 µg | 62.5 µg/mL (≈ 246 µM) | 125 µg/mL | 62.5 µg/mL | 31.3 µg/mL (≈ 123 µM) | 125 µg/mL (≈ 491 µM) | 500 µg/mL (≈ 1960 µM) | 23.43 µg | Non-toxic | 62.5 µg/mL (≈ 246 µM) | 125 µg/mL | 125 µg/mL (≈ 491 µM) | inhibition at 31.25 µg/mL [22]: 90%
10 | OC(CCl)CNc1ccc(Cl)cc1 (stereo unspecified) | 15.6 µg/mL (≈ 71 µM) | 125 µg/mL (≈ 568 µM) | 23.43 µg | 11.71 µg | 62.5 µg/mL (≈ 284 µM) | 31.2 µg/mL | 15.6 µg/mL | 62.5 µg/mL (≈ 284 µM) | 31.2 µg/mL (≈ 142 µM) | 1000 µg/mL (≈ 4540 µM) | 5.85 µg | Non-toxic | 15.6 µg/mL (≈ 71 µM) | 31.2 µg/mL | 500 µg/mL (≈ 2270 µM) | Activity [23]: Non-toxic; inhibition at 5.85 µg/mL [16]: 90%
11 | OC(CCl)CNc1cccc(Cl)c1Cl (stereo unspecified) | 125 µg/mL (≈ 491 µM) | 62.5 µg/mL (≈ 246 µM) | 93.75 µg | 46.87 µg | 62.5 µg/mL (≈ 246 µM) | 125 µg/mL | 125 µg/mL | 62.5 µg/mL (≈ 246 µM) | 125 µg/mL (≈ 491 µM) | 500 µg/mL (≈ 1960 µM) | 46.87 µg | Non-toxic | 62.5 µg/mL (≈ 246 µM) | 125 µg/mL | 62.5 µg/mL (≈ 246 µM) | –
